For series [1], the system named is inflamed colonic mucosa from ulcerative colitis patients. As to the kind of experiment: Ex-vivo culture of colon biopsies from ulcerative colitis patients, cytokine release (Method 1). It counts as cell-based, human. The note with it: colon biopsy samples from two UC patients, vs DMSO vehicle, PF-02545920 0.1 and 1 μM, TAK-063 1 μM, FIGS. 4 and 5. The protocol: The effect of selective PDE10 inhibition was tested on inflamed colonic mucosa from ulcerative colitis patients taken during routine endoscopy (Method 1 detailed below). These samples retain a disease phenotype in ex-vivo culture and secrete high basal levels of inflammatory cytokines. The effect of selective PDE10 inhibition on levels of the inflammatory cytokines IL-8 and IL-6 released from these tissue samples was measured.
These colon biopsies retain an inflammatory phenotype and secrete high levels of inflammatory cytokines in ex-vivo culture. […] The doses tested of each inhibitor will result in selective PDE10A inhibition over the other PDE family members.
Biopsy tissue was obtained from inflamed colonic mucosa from ulcerative colitis patients during routine endoscopy. Ex-vivo biopsy cultures for the analysis of inflammatory cytokine biomarkers were run as previously described (Vossenkämper A. et al. A CD3-specific antibody reduces cytokine production and alters phosphoprotein profiles in intestinal tissues from patients with inflammatory bowel disease. Gastroenterology, 2014, 147, 172-183). […] Supernatants collected at the end of the experiment were snap-frozen and stored at −70° C. For the measurement of cytokines, the frozen culture supernatants were thawed and analysed for levels of the inflammatory cytokines using Luminex cytokine assay kits (R&D Systems) and an R&D Systems MAGPIX® analyser. Mean values±SDs were calculated for the levels of spontaneous cytokine production measured in biopsy culture supernatants from each treatment group.

The test system of series [2] is isolated human neutrophils. As to the kind of experiment: In vitro assay of IL-8 neutrophil activation. It counts as cell-based. Particulars: FIG. 3.
Series [3] relates to inflamed colonic mucosa from treatment-refractory ulcerative colitis patients. As to the kind of experiment: Ex-vivo culture of inflamed colon tissue from surgical resection of treatment-refractory UC patients, TNFα release (Method 2). It counts as cell-based, human. Particulars: colon samples from two treatment-refractory UC patients, with SEB, about 18 h, vs DMSO vehicle; printed 1 M (FIG. 6: 1 μM).

Series [4] relates to T1, other PDE family members.
T1 construct: other: isolated enzyme biochemical assays; literature (Grauer 2009; Kunitomo 2014)
Particulars: isolated enzyme biochemical assays; literature (Grauer 2009; Kunitomo 2014); read-out: IC50s for other PDE family members; cited from earlier work.

Series [5] concerns rodents with induced memory deficits. Particulars: oral, 0.1 to 3 mg/kg; cited from earlier work.
For series [6] the following is noted: oral, rodents; cited from earlier work.
For another series, the system named is rats. Particulars: cited from earlier work.
For series [7] the following is noted: cited from earlier work.
The test system of series [8] is other PDE family members. Particulars: cited from earlier work.
Series [9] has as its target T2, PDE10A (Homo sapiens, UniProt Q9Y233). The note with it: cited from earlier work.
The test system of series [10] is animals, conditioned avoidance response model. Particulars: cited from earlier work.
For series [11], the target named is T2, PDE10A. Particulars: read-out: binding affinity (Kd) PDE10A; cited from earlier work.
Series [12] deals with rat models relevant to schizophrenia. The note with it: 0.1-0.3 mg/kg; cited from earlier work.
A further series deals with human PDE10 (Homo sapiens, UniProt Q9Y233). Particulars: cited from earlier work.
Chain of human PDE10 (Q9Y233 whole entry): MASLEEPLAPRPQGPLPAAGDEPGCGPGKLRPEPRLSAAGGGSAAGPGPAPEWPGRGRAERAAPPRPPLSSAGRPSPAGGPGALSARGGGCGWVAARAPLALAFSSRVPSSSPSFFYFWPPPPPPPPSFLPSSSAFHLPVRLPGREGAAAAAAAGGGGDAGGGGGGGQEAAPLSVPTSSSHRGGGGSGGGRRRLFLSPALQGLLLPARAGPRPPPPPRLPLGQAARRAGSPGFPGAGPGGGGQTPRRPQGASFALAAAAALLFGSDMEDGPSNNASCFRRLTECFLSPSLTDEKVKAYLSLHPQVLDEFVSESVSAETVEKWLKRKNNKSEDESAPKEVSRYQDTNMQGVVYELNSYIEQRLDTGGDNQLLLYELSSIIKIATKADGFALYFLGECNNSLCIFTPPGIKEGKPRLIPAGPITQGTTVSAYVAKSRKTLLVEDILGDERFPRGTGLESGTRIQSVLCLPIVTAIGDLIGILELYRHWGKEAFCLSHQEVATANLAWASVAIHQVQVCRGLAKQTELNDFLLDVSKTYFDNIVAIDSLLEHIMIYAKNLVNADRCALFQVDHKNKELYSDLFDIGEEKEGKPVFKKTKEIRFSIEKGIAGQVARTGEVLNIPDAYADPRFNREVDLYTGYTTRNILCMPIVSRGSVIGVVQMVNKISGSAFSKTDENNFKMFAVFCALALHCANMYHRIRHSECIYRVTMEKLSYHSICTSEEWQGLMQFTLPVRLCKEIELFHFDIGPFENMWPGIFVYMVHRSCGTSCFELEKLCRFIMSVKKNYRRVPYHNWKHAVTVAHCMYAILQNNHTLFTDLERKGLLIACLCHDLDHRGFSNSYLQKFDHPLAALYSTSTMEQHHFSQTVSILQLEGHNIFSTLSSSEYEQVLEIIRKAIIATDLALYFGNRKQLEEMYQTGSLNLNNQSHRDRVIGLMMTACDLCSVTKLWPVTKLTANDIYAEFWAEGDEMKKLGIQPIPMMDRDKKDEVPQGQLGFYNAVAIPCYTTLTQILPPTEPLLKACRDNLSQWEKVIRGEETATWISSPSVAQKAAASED
A further series has as its target T3, rat PDE10 (Rattus norvegicus, UniProt Q9QYJ6).
T3 sequence (Q9QYJ6 1-794): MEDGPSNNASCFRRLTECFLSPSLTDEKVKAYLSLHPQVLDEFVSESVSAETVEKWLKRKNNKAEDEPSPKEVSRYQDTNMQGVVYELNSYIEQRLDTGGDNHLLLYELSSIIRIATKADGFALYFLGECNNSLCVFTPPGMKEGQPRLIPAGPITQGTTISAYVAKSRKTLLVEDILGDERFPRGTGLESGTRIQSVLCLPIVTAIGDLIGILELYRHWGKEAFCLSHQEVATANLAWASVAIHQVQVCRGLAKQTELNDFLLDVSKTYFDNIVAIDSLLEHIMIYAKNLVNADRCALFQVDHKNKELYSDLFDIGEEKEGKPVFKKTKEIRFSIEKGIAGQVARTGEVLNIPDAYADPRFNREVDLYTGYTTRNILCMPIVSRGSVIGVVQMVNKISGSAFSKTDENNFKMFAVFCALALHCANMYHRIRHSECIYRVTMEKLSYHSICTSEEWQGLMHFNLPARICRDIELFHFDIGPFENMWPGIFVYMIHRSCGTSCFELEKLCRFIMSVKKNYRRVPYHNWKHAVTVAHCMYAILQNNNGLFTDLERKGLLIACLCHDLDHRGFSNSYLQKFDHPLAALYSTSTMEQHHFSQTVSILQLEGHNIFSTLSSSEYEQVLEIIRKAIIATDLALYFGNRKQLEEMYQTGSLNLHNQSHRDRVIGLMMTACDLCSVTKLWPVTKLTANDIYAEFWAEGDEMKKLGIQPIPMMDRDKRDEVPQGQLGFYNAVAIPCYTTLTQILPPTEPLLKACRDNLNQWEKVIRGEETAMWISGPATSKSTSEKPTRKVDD
Particulars: cited from earlier work.

For series [13], the system named is rat models relevant to schizophrenia. Particulars: 0.1-0.3 mg/kg; cited from earlier work. The source holds these as a separate data set.

pIC50, pKd: −log10 of the molar value. Where two headings read alike, the source gives them in different places.

T2 sequence (Q9Y233 whole entry): as the sequence (Q9Y233 whole entry) above

In the case of `Cn1cc(-c2ccncc2)c(-c2ccc(OCc3ccc4ccccc4n3)cc2)n1` [PF-02545920, 2-[[4-(1-methyl-4-pyridin-4-ylpyrazol-3-yl)phenoxy]methyl]quinolone], in series [1], the “secreted levels of IL-6” value was “significantly reduced” and the “secreted levels of IL-8” value is recorded as “significantly reduced”. The “IL-8 induced neutrophil activation” value in series [2] is reported as “dose dependently inhibited”. The “secreted levels of TNFα” value in series [3] was “significantly reduced”. Further, the pIC50 with other PDE family members [4] is under 6.00.
As for `COc1cn(-c2ccc(-n3cccn3)cc2F)nc(-c2ccnn2-c2ccccc2)c1=O` [TAK-063, 1-(2-fluoro-4-pyrazol-1-ylphenyl)-5-methoxy-3-(2-phenylpyrazol-3-yl)pyridazin-4-one], in [1], the “secreted levels of IL-6” value is listed as “significantly reduced” and the “secreted levels of IL-8” value is “significantly reduced”. Moreover, in the series with other PDE family members [4], the pIC50 is under 5.30.
Turning to `COc1cc2ncnc(N3CC[C@@H](Oc4cnc5ccccc5n4)C3)c2cc1OC` [PQ-10, 6,7-dimethoxy-4-[(3R)-3-quinoxalin-2-yloxypyrrolidin-1-yl]quinazoline], the induced memory defects result in [5] is “reversed”. Moreover, in [6], the brain penetration result is “highly brain penetrant”. In addition, the “basic auditory information processing” value with rats is “enhances”.
For `CC(=O)N1CCC(c2nccnc2Oc2ccc(C(=O)c3nc4ccccc4[nH]3)cc2)CC1` [AMG-579, 1-[4-[3-[4-(1H-benzimidazole-2-carbonyl)phenoxy]pyrazin-2-yl]piperidin-1-yl]ethanone], in series [7], the oral bioavailability result is given as “orally bioavailable”. Besides, the pIC50 with other PDE family members [8] (read-out: IC50 against all other PDE isoforms) was under 4.52.
Take `CCNC(=O)c1sc(Nc2nc(Cl)cc(NCc3cccnc3)n2)nc1C` [BMS-843496, 2-((4-chloro-6-((pyridin-3-ylmethyl)amino)pyrimidin-2-yl)amino)-N-ethyl-4-methylthiazole-5-carboxamide]: the pIC50 on PDE10A [9] was 8.68. In addition, the “antipsychotic effects, conditioned avoidance response model” value in series [10] is “correlated with antipsychotic effects”. The negative-log Kd (pKd) at PDE10A [11] was 9.82. Besides, the “selectivity over other PDE families / family members / phosphodiesterases” value in the series with other PDE family members [8] is over 100 fold.
For the compound `Cc1ncc(C)n2nc(/C=C/c3nc(N4CCCC4)cc(N4CCOCC4)n3)nc12` [PDM-042, (E)-4-(2-(2-(5,8-dimethyl-[1,2,4]triazolo[1,5-a]pyrazin-2-yl)vinyl)-6-(pyrrolidin-1-yl)pyrimidin-4-yl) morpholine], in series [12], the MK-801-induced hyperlocomotion result is “significantly antagonized”. In addition, in series [12], the spontaneous locomotor activity result is “without affecting”. The pIC50 on human PDE10 and at rat PDE10 was over 9.00 in each case. In [13], the conditioned avoidance response result is listed as “attenuated”. In addition, the “selectivity over other PDE families / family members / phosphodiesterases” value in the series on other PDE family members [8] is “more than 1000 fold”.

What is called pKd is the Kd on a negative log10 scale, so that one unit is a factor of ten.
